Reference: US20210100777A1, “HEAT SHOCK PROTEIN (HSP) INHIBITION AND MONITORING EFFECTIVENESS THEREOF” (H. LEE MOFFITT CANCER CENTER AND RESEARCH INSTITUTE, INC., priority 2013, published 2021)
Entries after “also recorded” stand apart in the source; their conditions may differ.

Key:
[1] = test system: heat shock proteins (HSPs) in RPMI-8226 multiple myeloma cells; test: LC-MRM quantification of HSP expression before and 24 hours after 17-DMAG (Example 1); format: cell-based, human; details: 106 nM 17-DMAG
Method: Monitoring HSPs in multiple myeloma cells. RPMI-8226 multiple myeloma cells were cultured in suspension as described above with the addition of 100 units/mL penicillin/streptomycin. Stock 17-dimethylaminoethylamino-17-demethoxy-geldanamycin (17-DMAG) was dissolved in DMSO at a concentration of 10 mM. Based on prior IC50 measurements, the RPMI-8226 cells were treated with 106 nM 17-DMAG for 24 hours.
RPMI-8226 cells (n=10^6) were lysed using […] aqueous 8M urea with 100 mM ammonium bicarbonate. Protein concentration was measured by the Bradford assay and 0.38 μg of protein (equivalent to 3,750 cells) was injected for LC-MRM analysis of control and drug-treated samples. The proteins were reduced with 2 mM TCEP, alkylated with 20 mM IAA, and digested overnight in solution with trypsin at 37° C. Corresponding stable-isotope-labeled internal standard peptides were added to the samples after digestion. Then, peptides were extracted using pipette tips packed with C18 reversed-phase resin (Ziptip, Millipore; Billerica, Mass.) and concentrated to dryness by vacuum centrifugation (Speedvac, Thermo), and resuspended in aqueous 2% ACN with 0.1% formic acid prior to MS. LC-MRM was performed as described above. Quantification is achieved by using the sum of the peak areas for all detected transitions using QuanBrowser (Xcalibur, Thermo, San Jose, Calif.) or Skyline. The ratio of peak area of the endogenous peptide over corresponding internal standard was calculated for each peptide in the sample to enable absolute and relative quantification. Relative protein expression after treatment was normalized to the pretreatment control for each cell line and plotted to show the change in expression after drug treatment. Bubble plots were created using the SigmaPlot 10 (SPSS).

[2] = test system: M229R xenografts; test: Xenograft experiment; format: in vivo, BALB SCID mice; details: 100 mg/kg, PO, 3× week, 15 days
Method: Xenograft experiments. BALB SCID mice (The Jackson Laboratory, Bar Harbor, Me.) were subcutaneously injected with 2.5×10^6 cells per mouse (resuspended in 111 μL L-15 media, 10 mM HEPES, 37.5 μL Matrigel). Tumors were grown to approximately 100 mm^3 prior to dosing. Mice were treated with either 100 mg XL888/kg (n=5) or an equivalent volume of vehicle (10 mM HCl), 3 times per week by oral gavage. Mouse weights and tumor volumes (L×W2/2) were measured 3 times per week. Upon completion of the experiment, vehicle and drug treated tumor biopsies were processed for LC-MRM analysis (as above).

[3] = test system: BIM, Mcl-1 and BMF mRNA in vemurafenib-resistant melanoma cell lines; test: Quantitative real-time PCR; details: 300 nM, 48 hours
[4] = test system: vemurafenib resistant melanoma cell lines; test: Apoptosis, Annexin-V staining and flow cytometry; format: cell-based; details: 72 or 144 hours
Method: Flow cytometry. […] In some studies, RPMI7951 cells were treated with 300 nM XL888 in the presence or absence of 3 μM vemurafenib and harvested after 24, 48 and 72 hours.

[5] = test system: melanoma cell lines; test: Colony formation assay; format: cell-based; details: 300 nM, up to 4 weeks; any of the cell lines
Method: Colony formation. Cells (1×10^4 per ml) were grown overnight before being treated with vehicle (DMSO) or XL888 (300 nM) for 4 weeks as described in (Paraiso et al., Br. J. Cancer 102:1724-30 (2010)), and relative colony density was determined by solubilizing the crystal violet dye in 10% acetic acid followed by measurement of absorbance at 450 nm.

## CO[C@H]1/C=C\C=C(/C)C(=O)NC2=CC(=O)C(NCCN(C)C)=C(C[C@@H](C)C[C@H](OC)[C@H](O)[C@@H](C)/C=C(\C)[C@@H]1OC(N)=O)C2=O [17-DMAG, 17-Dimethylaminoethylamino-17-demethoxygeldanamycin]
[1]
  H90B2 Post-Treatment: 25.3 amol/cell
[1]; peptide ADLINNLR
  HSPB3 Post-Treatment: 0.14 amol/cell
[1]; peptide AFSDPFVEAEK
  HSP74 Post-Treatment: 0.89 amol/cell
[1]; peptide ALLFIPR
  HS90B Post-Treatment: 14.5 amol/cell
[1]; peptide ALLFVPR
  HS90A Post-Treatment: 20.9 amol/cell
[1]; peptide EIAEAYLGGK
  HSP72 Post-Treatment: 0.39 amol/cell
[1]; peptide GTLDPVEK
  HSP7C Post-Treatment: 14.9 amol/cell
[1]; peptide LQAEAQQLR
  CDC37 Post-Treatment: 0.91 amol/cell
[1]; peptide NQVALNPQNTVFDAK
  HSP71 Post-Treatment: 0.051 amol/cell
[1]; peptide VEIIANDQGNR
  GRP78 Post-Treatment: 110 amol/cell
[1]; post- vs pre-treatment
  CDC37 Ratio: 1.07
  GRP78 Ratio: 2.25
  H90B2 Ratio: 1.57
  HS90A Ratio: 1.87
  HS90B Ratio: 1.84
  HSP7C Ratio: 1.93
  HSP71 Ratio: 3.95
  HSP72 Ratio: 1.21
  HSP74 Ratio: 1.23
  HSPB3 Ratio: 1.25

## CC[C@@H](C)Nc1cc(C(=O)N[C@@H]2C[C@H]3CC[C@@H](C2)N3c2ccc(C(=O)C3CC3)cn2)c(C)cc1C(N)=O [XL888, 5-((R)-sec-butylamino)-N1-((1R,3s,5S)-8-(5-(cyclopropanecarbonyl)pyridin-2-yl)-8-azabicyclo[3.2.1]octan-3-yl)-2-methylterephthalamide]
[2]
  regression of established M229R xenografts: significantly induce the regression; also recorded: significant levels of tumor regression
[3]
  BIM mRNA expression: increase in BIM mRNA
  Mcl-1 expression at the mRNA level: blocked Mcl-1 expression at the mRNA level
[3]; M229R and 1205LuR
  BMF mRNA expression: only weakly induced BMF mRNA expression
[4]; 300 nM, every cell line tested
  apoptosis: > 66%
[4]; resistance through COT, PDGFRβ overexpression and two unknown mechanisms
  apoptosis versus MEK, PI3K and MEK+PI3K inhibitors: significantly higher levels of apoptosis than each of the other drug combinations
[5]
  colony formation: no signs of colony formation
